Data as given in patent US5047242A, “Azadirachtin derivative insecticides” (Native Plant Institute ("NPI"), priority 1987, dated 1991).
Converted amounts (≈) assume the structure as drawn. “Also recorded” adds a separate entry of the source. Where two headings read alike, the source gives them in different places.

Assays:
Heliothis virescens [1] = test: Artificial diet feeding bioassay, mortality and growth inhibition in first-instar larvae; format: in vivo, Heliothis virescens (tobacco budworm); conditions: for EC50 (concentration causing 50% growth inhibition): Table 1, first-instar Heliothis virescens larvae, parentheses = 95% confidence limits; for EC50 (concentration causing 50% growth inhibition) / EC50: artificial diet; for insecticidal activity (in words): Heliothis virescens feeding; for LC50: Heliothis virescens, po; for EC50: Table 5, larval growth reduced to 50% of control, first instar Heliothis virescens, 95% confidence limits
From the text: The results of the growth inhibitory and lethal activities of azadirachtin and these 8 derivatives when fed in an artificial diet to Heliothis virescens larvae are shown in Table 1. Similar to the results of Morgan, E. D., in "Natural pesticides from the Neem tree (Azadirachta indica A. Juss), Schmutterer, H., et al., Eds., Proc. First International Neem Conference (Rottach-Egern, 1980), German Agency for Technical Corporation,Eschborn, Germany, 1982, pps. 43-52 (hereinafter "Morgan"), neither deacetylation nor hydrogenation of the carbon-carbon double bond of the dihydrofuran ring moiety of azadirachtin had any significant effect on activity of the compound against H. virescens.
Mortality and growth inhibition in first-instar Heliothis
virescens larvae fed azadirachtin and eight derivatives in an
artificial diet (I. Kubo and J. A. Klocke, In: Plant Resistance to
Insects (P. A. Helin, Ed.), ACS Symposium Series 208, American Chemical
Society, Washington, D.C. (1983), pp. 329-346.).^a
^b LC50 values are the concentrations (ppm) causing 50%
^c EC50 values are the concentrations (ppm) causing 50% growth
^d Numbers in parentheses are the 95% confidence limits determined
using the methods of Litchfield and Wilcoxon, J. Pharmacol. Exp. Ther.
An artificial diet feeding bioassay with neonate larvae of tobacco budworm (Heliothis virescens) and fall armyworm (Spodoptera frugiperda) was used as previously described (Kubo and Klocke, 1983) to detect insecticidal activities in the plant extracts to monitor fractionation, and to determine the potency of the isolated constituents and derivatives. Potency was determined either as the effective concentration (EC50) of added material that is necessary to reduce larval growth to 50% of the control values or as the lethal concentration (LC50) of added material that is necessary to kill 50% of the treated larvae. EC50 and LC50 values were determined from log probit paper and analyzed statistically by the method of Litchfield and Wilcoxon, supra.

Heliothis virescens [2] = test: Oral injection of fifth-instar larvae, pupal and adult development (non-irradiated compounds); format: in vivo
Procedure: (§1) Individual larvae were injected per os on the first day of the fifth instar with 1.0 μg of either irradiated or non-irradiated compounds dissolved in 1.0 μl of 75% aqueous ethanol.
Table 2: Successful and unsuccessful pupal and adult development of
fifthinstar Heliothis Virescens larvae injected orally with 1.0 microgram
of either azadirachtin, 3deacetylazadirachtin, 22,23dihydroazadirachtin,
or 2',3',22,23tetrahydroazadirachtin.

[3] = UV stability in ethanol by reversed phase HPLC; format: physicochemical
Procedure: Stability of Azadirachtin derivatives was determined as follows:
(§2) Azadirachtin, 3-deacetylazadirachtin, 22,23-dihydroazadirachtin, and 2',3',22,23-tetrahydroazadirachtin (1.0 mg/ml absolute ethanol) were placed individually in capped quartz NMR tubes (5×180 mm) and were irradiated with two UV germicidal lights (GE, G30T8, 200-280 nm, 30W) 1.8 m from the source at room temperature for up to 400 h. The controls were identical samples protected from exposure to UV radiation by wrapping with aluminum foil. At selected time intervals, aliquots from both the controls (non-irradiated) and irradiated samples were removed for high-performance liquid chromatography (HPLC) analysis and bioassay (vide infra).
Analytical reversed phase HPLC was performed on a phenyl (5μm) column run isocratically with acetonitrile-water (3:7) (Yamasaki et al.) Peaks were detected at 214 nm. The irradiated samples were compared with their corresponding non-UV-irradiated controls by measuring the height of the peak eluting at the appropriate Rt for each irradiated compound relative to each one's non-irradiated control. Results are expressed as the percent of the initial sample concentration remaining relative to the control. Each time point was done in at least triplicate fashion.

Heliothis virescens [4] = test: Relative activity of UV-irradiated compounds in inhibiting adult development of fifth-instar larvae; format: in vivo; conditions: for Relative activity, inhibition of adult development: relative to non-irradiated counterpart
Procedure: as §2, §1
Table 4: Relative activity of azadirachtin, 3deacetylaza-dirachtin,
22,23dihydroazadirachtin, 2',3',22,23tetrahydroaza-dirachtin, all of whic
had been exposed for 15, 30, 90, 200, and 400 hours to UV radiation, in
inhibiting the adult development of fifthinstar Heliothis virescens
(§3) larvae. Relative activity is defined as the percentage of larvae injected
relative to the percentage injected with its nonirradiated counterpart

Heliothis virescens [5] = test: Relative activity of UV-irradiated compounds in inhibiting pupal development of fifth-instar larvae; format: in vivo; conditions: for Relative activity, inhibition of pupal development: relative to non-irradiated counterpart
Procedure: as §2, §1
Table 3: Relative activity of azadirachtin, 3deacetylaza-dirachtin,
22,23dihydroazadirachtin, and 2',3',22,23tetrahydroazadirachtin, all of
which had been exposed for 15, 30, 90, 200, and 400 hours to UV radiation
inhibiting the pupal development of fifthinstar Heliothis virescens
as §3

[6] = 1.0 microgram injected orally, fifth-instar, non-irradiated
[7] = 1.0 microgram injected orally, % of larvae
[8] = read-out: LC50 (concentration causing 50% mortality)

## COC(=O)C1(O)OCC23C(O)CC(OC(C)=O)C4(C(=O)OC)COC(C42)C(O)C(C)(C24OC2(C)C2CC4OC4OCCC42O)C13 (centres unmarked) [1-detigloyl-22,23-dihydroazadirachtin]
Heliothis virescens [1]
  EC50 (concentration causing 50% growth inhibition): 0.59 (0.30-1.14) ppm

## CCC(C)C(=O)OC1CC(OC(C)=O)C2(C(=O)OC)COC3C2C12COC(O)(C(=O)OC)C2C(C)(C12OC1(C)C1CC2OC2OCCC21O)C3O (centres unmarked) [2',3',22,23-tetrahydroazadirachtin]
Heliothis virescens [2]; [6]
  Number Adults: 0 Number
  Number Adults Deformed: 0 Number
  Unsuccessful Larvae-Pupae (number): 6 Number
  Unsuccessful Pupae-Adult (number): 1 Number
Heliothis virescens [2]; [7]
  Adults (%): 0%
  Adults Deformed (%): 0%
  Pupae (%): 7.4%
  Unsuccessful Larvae-Pupae (%): 4.4%
  Unsuccessful Pupae-Adult (%): 0.7%
Heliothis virescens [2]; non-irradiated, 1.0 μg per os
  inhibition of pupation (in words): equally effective
[3]
  degradation following 200 h of exposure to UV radiation (in words): no degradation
[3]; UV irradiation, HPLC
  UV lability (in words): not UV-labile
Heliothis virescens [4]; 15 h UV exposure
  Relative activity, inhibition of adult development: 100.0%
Heliothis virescens [4]; 30 h UV exposure
  Relative activity, inhibition of adult development: 100.0%
Heliothis virescens [4]; 90 h UV exposure
  Relative activity, inhibition of adult development: 100.0%
Heliothis virescens [4]; 200 h UV exposure
  Relative activity, inhibition of adult development: 100.0%
Heliothis virescens [4]; 400 h UV
  ability to inhibit larvae from reaching the adult stage after UV (in words): fully active
Heliothis virescens [4]; 400 h UV exposure
  Relative activity, inhibition of adult development: 100.0%
Heliothis virescens [5]; 15 h UV exposure
  Relative activity, inhibition of pupal development: 99.4%
Heliothis virescens [5]; 30 h UV exposure
  Relative activity, inhibition of pupal development: 103.7%
Heliothis virescens [5]; 90 h UV exposure
  Relative activity, inhibition of pupal development: 99.7%
Heliothis virescens [5]; 200 h UV
  ability to inhibit pupation after UV (in words): most active in inhibiting pupation
Heliothis virescens [5]; 200 h UV exposure
  Relative activity, inhibition of pupal development: 108.0%
Heliothis virescens [5]; 400 h UV
  ability to inhibit pupation after UV (in words): some loss in activity; also recorded: still more active than the other test compounds
Heliothis virescens [5]; 400 h UV exposure
  Relative activity, inhibition of pupal development: 69.1%
Heliothis virescens [1]
  insecticidal activity (in words): full activity; also recorded: fully active
  EC50 (concentration causing 50% growth inhibition): 0.08 (0.05-0.13) ppm

## COC(=O)C1(O)OCC23C(OC(=O)C(C)(O)C(C)O)CC(OC(C)=O)C4(C(=O)OC)COC(C42)C(O)C(C)(C24OC2(C)C2CC4OC4OCCC42O)C13 (centres unmarked) [2',3'-dihydroxy-2',3',22,23-tetrahydroazadirachtin]
Heliothis virescens [1]
  EC50 (concentration causing 50% growth inhibition): 3.80 (1.95-7.41) ppm

## C/C=C(\C)C(=O)OC1CC(OC(C)=O)C2(C(=O)OC)COC3C2C12COC(OC(=O)OC)(C(=O)OC)C2C(C)(C12OC1(C)C1CC2OC2OCCC21OC(=O)OC)C3O (centres unmarked) [11,20-O, O-dicarbomethoxy-22,23-dihydroazadirachtin]
Heliothis virescens [1]; [8]
  LC50: 90 µg/mL (≈ 107 µM)
Heliothis virescens [1]
  EC50 (concentration causing 50% growth inhibition): 29.0 (20.3-41.5) ppm

## C/C=C(\C)C(=O)OC1CC(OC(C)=O)C2(C(=O)OC)COC3C2C12COC(OC(C)=O)(C(=O)OC)C2C(C)(C12OC1(C)C1CC2OC2OC=CC21O)C3O (centres unmarked) [11-O-acetylazadirachtin]
Heliothis virescens [1]; [8]
  LC50: 0.95 µg/mL (≈ 1.25 µM)
Heliothis virescens [1]
  EC50 (concentration causing 50% growth inhibition): 0.18 (0.08-0.40) ppm

## C/C=C(\C)C(=O)OC1CC(OC(C)=O)C2(C(=O)OC)COC3C2C12COC(OC)(C(=O)OC)C2C(C)(C12OC1(C)C1CC2OC2OC=CC21O)C3O (centres unmarked) [11-O-methylazadirachtin]
Heliothis virescens [1]; [8]
  LC50: 25 µg/mL (≈ 34 µM)
Heliothis virescens [1]
  EC50 (concentration causing 50% growth inhibition): 5.00 (1.54-16.25) ppm

## CC(=O)C1C2(CO)C(OC(=O)/C=C/c3ccccc3)CC(O)C3(C)COC(C32)C(O)C1(C)C12OC1(C)C1CC2OC2OC=CC21O (centres unmarked) [Compound 10, 1-cinnamoylmelianolone]
Heliothis virescens [1]
  insecticidal activity (in words): approximately half that of azadirachtin
  LC50: 1.5 µg/mL (≈ 2.35 µM)
  EC50: 0.12 ppm

## CC(=O)OC1CC(OC(=O)/C=C/c2ccccc2)C2(CO)C3C(OCC13C)C(O)C(C)(C13OC1(C)C1CC3OC3OC=CC31O)C2C(C)=O (centres unmarked) [Compound 12, 1-cinnamoyl-3-0-acetylmelianolone]
Heliothis virescens [1]
  insecticidal activity (in words): approximately half that of azadirachtin
  LC50: 1.5 µg/mL (≈ 2.2 µM)
  EC50: 0.15 ppm

## CC(=O)OCC12C(OC(=O)/C=C/c3ccccc3)CC(OC(C)=O)C3(C)COC(C31)C(O)C(C)(C13OC1(C)C1CC3OC3OC=CC31O)C2C(C)=O (centres unmarked) [Compound 13, 1-cinnamoyl-3,19-0,0-diacetylmelianolone]
Heliothis virescens [1]
  insecticidal activity (in words): approximately half that of azadirachtin
  LC50: 1.5 µg/mL (≈ 2.08 µM)
  EC50: 0.12 ppm

## CC(=O)C1C2(CO)C(O)CC(O)C3(C)COC(C32)C(O)C1(C)C12OC1(C)C1CC2OC2OC=CC21O (centres unmarked) [Compound 14, decinnamoylmelianolone]
Heliothis virescens [1]
  insecticidal activity (in words): did not show good activity
  LC50: 10 µg/mL (≈ 19.7 µM)
  EC50: 3.20 ppm
